What was measured:
Assay type in all cases: in vivo
[1] = system: green bristle grass (Setaria); assay: Herbicide effect test against field weed (soil spray treatment before germination), Test example 1; settings: dosage 500 g ai/ha, 2 weeks after treatment, 100% = complete death, 0% = no effect
Method: (§1) • Preparing preparation of active compound • Carrier: DMF 5 parts by weight • Emulsifier: benzyloxy polyglycol ether 1 part by weight
(§2) A preparation of active compound is obtained as an emulsion by mixing 1 part by weight of active compound with the above amounts of carrier and emulsifier. A prescribed amount of preparation is diluted with water.
(§3) In a greenhouse, seeds of field weeds [livid amaranth (Amaranthus), green bristle grass (Setaria)] were sown on the surface layer of 16 cm^2 pots filled with field soil (sandy loam) , and covered with soil. Here, one kind of grass was sown for one pot. Immediately after sowing, the prescribed diluted solutions which were prepared according to the above preparation method of the preparation of respective active compounds were sprayed to soil. After 2 weeks from the treatment, the herbicide effect of each of the compounds was examined. In the evaluation of herbicide effect, complete death was evaluated as 100%, and the case of no herbicide effect was evaluated as 0%. When the herbicide effect is 80% or more, such active compounds are evaluated to have practical utility as a herbicide.

[2] = system: livid amaranth (Amaranthus); assay: as above; settings: dosage 500 g ai/ha, 2 weeks after treatment, 100% = complete death, 0% = no effect
Method: as §1, §2, §3

[3] = system: barnyardgrass (Echinochloa); assay: Selective herbicide effect test to field crop (soil spray treatment before germination), Test example 3, herbicide effect; settings: 2 weeks after treatment, 100% = complete death
Method: as §1, §2
(§4) In a greenhouse, seeds of field crops [wheat (Triticum), corn (Zea), soy bean (Glycine)] and weeds [barnyardgrass (Echinochloa), southern crabgrass (Digitaria), livid amaranth (Amaranthus), fat hen (Chenopodium)] were sown on the surface layer of 16 cm^2 pots filled with field soil (sandy loam), and covered with soil. After 1 day, the prescribed diluted solutions of preparations of respective active compounds, which were prepared according to Test example 1, were sprayed to the soil. After 2 weeks from the treatment, phytotoxicity to crops and herbicide effect of respective compounds were examined. In the evaluation of herbicide effect and phytotoxicity, complete death was evaluated as 100%, and the case of no herbicide effect or no phytotoxicity was evaluated as 0%. When the herbicide effect is 80% or more, such active compounds are evaluated to have practical utility as a herbicide. When phytotoxicity is 20% or less, such active compounds are evaluated to have excellent safety as a herbicide.

fat hen (Chenopodium) = assay: as above; settings: 2 weeks after treatment, 100% = complete death
Method: as §1, §2, §4

[4] = system: livid amaranth (Amaranthus); assay: as above; settings: 2 weeks after treatment, 100% = complete death
Method: as §1, §2, §4

[5] = system: southern crabgrass (Digitaria); assay: as above; settings: 2 weeks after treatment, 100% = complete death
Method: as §1, §2, §4

corn (Zea) = assay: Selective herbicide effect test to field crop (soil spray treatment before germination), Test example 3, phytotoxicity; settings: 2 weeks after treatment, 100% = complete death, 0% = no phytotoxicity
Method: as §1, §2, §4

soy bean (Glycine) = assay: as above; settings: 2 weeks after treatment, 100% = complete death, 0% = no phytotoxicity
Method: as §1, §2, §4

wheat (Triticum) = assay: as above; settings: 2 weeks after treatment, 100% = complete death, 0% = no phytotoxicity
Method: as §1, §2, §4

Green bristle grass = assay: Herbicide effect test against field weed (foliage spray treatment after germination), Test example 2; settings: foliage spray treatment after germination (2nd-3rd leaf stage); dosage 500 g ai/ha; 2 weeks after treatment; 100% = complete death
Method: as §1, §2, §3
In a greenhouse, to 16 cm^2 pots filled with field soil (sandy loam), seedling plants (2nd-3rd leaf stage) of a field weed (Green bristle grass) were transplanted. After 1 day, the prescribed diluted solutions of preparations of respective active compounds, which were prepared according to the above Test example 1, were sprayed from the upside of the plant body. After 2 weeks from the treatment, the herbicide effect of each of the compounds was examined. Evaluation of herbicidal effect was carried out similarly to Test example 1.

corn = assay: Selective herbicide effect test to field crop (foliage spray treatment after germination), Test example 4, phytotoxicity; settings: 14 days after spraying, 100% = complete death, 0% = no phytotoxicity
Method: as §1, §2, §4
(§5) In a greenhouse, respective seeds of weeds (barnyardgrass, southern crabgrass, fat hen, and livid amaranth) and crops (wheat, corn, and soy bean) were sown on the surface layer of pots filled with field soil, and covered with soil. After one day and 10 days (average 2nd leaf stage for weeds) from the sowing and covering the seeds with soil, the prescribed diluted solutions of preparations of respective active compounds, which were prepared according to Test example 1, were uniformly sprayed onto the soil surfaces of respective test pots and the foliage parts of the plant bodies.
(§6) After 14 days from the spraying, the degree of herbicide effect was examined. Evaluation of herbicide effect and phytotoxicity were carried out similarly to Test example 3.

soy bean = assay: as above; settings: 14 days after spraying, 100% = complete death, 0% = no phytotoxicity
Method: as §1, §2, §4, §5, §6

wheat = assay: as above; settings: 14 days after spraying, 100% = complete death, 0% = no phytotoxicity
Method: as §1, §2, §4, §5, §6

barnyardgrass = assay: Selective herbicide effect test to field crop (foliage spray treatment after germination), Test example 4, herbicide effect; settings: 14 days after spraying, 100% = complete death, 0% = no effect
Method: as §1, §2, §4, §5, §6

fat hen = assay: as above; settings: 14 days after spraying, 100% = complete death, 0% = no effect
Method: as §1, §2, §4, §5, §6

livid amaranth = assay: as above; settings: 14 days after spraying, 100% = complete death, 0% = no effect
Method: as §1, §2, §4, §5, §6

southern crabgrass = assay: as above; settings: 14 days after spraying, 100% = complete death, 0% = no effect
Method: as §1, §2, §4, §5, §6

| SMILES | herbicide effect, Barnyardgrass ([3]; dosage 320 g/ha) | herbicide effect, Fat hen (fat hen (Chenopodium); dosage 320 g/ha) | Herbicide effect, Livid amaranth ([4]; dosage 320 g/ha) | herbicide effect, Southern crabgrass ([5]; dosage 320 g/ha) | Herbicide effect, Green bristle grass (Green bristle grass) | phytotoxicity, Corn (corn; 320 g/ha) | phytotoxicity, Soy bean (soy bean; 320 g/ha) | phytotoxicity, Wheat (wheat; 320 g/ha) | herbicide effect, Barnyardgrass (barnyardgrass; 320 g/ha) | herbicide effect, Fat hen (fat hen; 320 g/ha) | Herbicide effect, Livid amaranth (livid amaranth; 320 g/ha) | herbicide effect, Southern crabgrass (southern crabgrass; 320 g/ha) | also measured |
| --- | --- | --- | --- | --- | --- | --- | --- | --- | --- | --- | --- | --- | --- |
| Cc1nc(-n2cncn2)ccc1C(=O)C1C(=O)CCCC1=O [1-1, 2-{[2-methyl-6-(1H-1,2,4-triazol-1-yl)pyridin-3-yl]carbonyl}cyclohexan-1,3-dione] | 100% | 100% | 80% | 100% |  |  |  |  |  |  |  |  | Herbicide effect, Green bristle grass [1]: 100%; Herbicide effect, Livid amaranth [2]: 100% |
| O=C1CCCC(O)=C1C(=O)c1ccc(-n2cncn2)nc1COCC(F)(F)F [1-28] | 100% | 100% | 90% | 100% |  |  |  |  |  |  |  |  | phytotoxicity, Corn (corn (Zea); dosage 320 g/ha): 5%; phytotoxicity, Soy bean (soy bean (Glycine); dosage 320 g/ha): 10%; phytotoxicity, Wheat (wheat (Triticum); dosage 320 g/ha): 0% |
| CSCc1nc(-n2cncn2)ccc1C(=O)C1=C(O)CCCC1=O [1-36] |  |  |  |  | 100% | 10% | 50% | 0% | 100% | 90% | 80% | 100% |  |
| CS(=O)(=O)Cc1nc(-n2cncn2)ccc1C(=O)C1=C(O)CCCC1=O [1-56] |  |  |  |  |  | 50% | 50% | 0% | 100% | 90% | 80% | 100% |  |
| COCCOCc1nc(-n2cncn2)ccc1C(=O)C1=C(O)CCCC1=O [1-66] |  |  |  |  | 90% | 50% | 50% | 10% | 100% | 100% | 100% | 100% |  |
| Cc1nc(-n2cncn2)ccc1C(=O)C1=C(O)CCC(C)C1=O (stereo not shown) [1-115] | 100% | 100% | 90% | 100% | 100% |  |  |  |  |  |  |  | phytotoxicity, Corn (corn (Zea); dosage 320 g/ha): 0%; phytotoxicity, Soy bean (soy bean (Glycine); dosage 320 g/ha): 10%; phytotoxicity, Wheat (wheat (Triticum); dosage 320 g/ha): 0% |
| Cc1nc(-n2cncn2)ccc1C(=O)C1=C(O)CCC(C)(C)C1=O [1-457] |  |  |  |  | 100% | 50% | 40% | 20% | 100% | 100% | 100% | 100% |  |
| Cc1nc(-n2cncn2)ccc1C(=O)C1=C(O)C(C)(C)C(=O)C(C)(C)C1=O [1-685] |  |  |  |  |  |  |  |  |  |  |  |  | phytotoxicity, Corn (corn (Zea); dosage 80 g/ha): 30%; phytotoxicity, Soy bean (soy bean (Glycine); dosage 80 g/ha): 10%; phytotoxicity, Wheat (wheat (Triticum); dosage 80 g/ha): 40%; herbicide effect, Barnyardgrass ([3]; dosage 80 g/ha): 100%; herbicide effect, Fat hen (fat hen (Chenopodium); dosage 80 g/ha): 90%; Herbicide effect, Livid amaranth ([4]; dosage 80 g/ha): 90%; herbicide effect, Southern crabgrass ([5]; dosage 80 g/ha): 100% |
| Cc1nc(-n2cncn2)ccc1C(=O)c1cnn(C)c1O [2-1] |  |  |  |  |  |  |  |  |  |  |  |  | Herbicide effect, Green bristle grass [1]: 100%; Herbicide effect, Livid amaranth [2]: 100%; phytotoxicity, Corn (corn; 80 g/ha): 5%; phytotoxicity, Soy bean (soy bean; 80 g/ha): 50%; phytotoxicity, Wheat (wheat; 80 g/ha): 0%; herbicide effect, Barnyardgrass (barnyardgrass; 80 g/ha): 100%; herbicide effect, Fat hen (fat hen; 80 g/ha): 90%; Herbicide effect, Livid amaranth (livid amaranth; 80 g/ha): 100%; herbicide effect, Southern crabgrass (southern crabgrass; 80 g/ha): 95% |
| Cc1nc(-n2cncn2)ccc1C(=O)c1c(C)nn(C)c1O [2-229] |  |  |  |  |  | 50% | 60% | 10% | 100% | 90% | 100% | 100% | Herbicide effect, Green bristle grass [1]: 100%; Herbicide effect, Livid amaranth [2]: 100% |
| Cc1nc(-n2cncn2)ccc1C(=O)c1cnoc1C1CC1 [3-115] | 100% | 100% | 90% | 100% | 100% |  |  |  |  |  |  |  | phytotoxicity, Corn (corn (Zea); dosage 320 g/ha): 10%; phytotoxicity, Soy bean (soy bean (Glycine); dosage 320 g/ha): 20%; phytotoxicity, Wheat (wheat (Triticum); dosage 320 g/ha): 5% |
